Experimental data from the supplement of paper PMC10307832.

Legend:
Assay in all cases: relative viability (nuclei count vs DMSO), 5 days (fraction); higher = more cells survive
Mirin + OSI-027 = compound: N=C1NC(=O)/C(=C/c2ccc(O)cc2)S1 [Mirin] + COc1cccc2cc(-c3nc([C@H]4CC[C@H](C(=O)O)CC4)n4ncnc(N)c34)[nH]c12 [OSI-027] (partner 0.5 µM)
In short: (§1)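 Nuclei were stained with Hoechst during a one-step fixation (final 0.05% Triton X-100, 1% formaldehyde, 1 ug/ml Hoechst) carried out 5 days after dosing, then counted on 4× images. The cells, lung cancer lines in 1536-well plates, had been dosed by pin tool the day after seeding with one drug alone or a fixed anchor-drug dose plus five library-drug doses (not always all listed) in √10 steps. Relative viability is the nuclei count in treated wells divided by that in vehicle wells, and each value is the median of duplicate plates.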

[1] = compound: CCn1c(-c2nonc2N)nc2cnc(Oc3cccc(NC(=O)c4ccc(OCCN5CCOCC5)cc4)c3)cc21 + COc1cc2c(Oc3ccc(NC(=O)C4(C(=O)Nc5ccc(F)cc5)CC4)cc3F)ccnc2cc1OCCCN1CCOCC1 [Foretinib] (partner 0.25 µM)
In short: as §1

Mirin + Pemetrexed = compound: N=C1NC(=O)/C(=C/c2ccc(O)cc2)S1 [Mirin] + Nc1nc2[nH]cc(CCc3ccc(C(=O)N[C@@H](CCC(=O)O)C(=O)O)cc3)c2c(=O)[nH]1 [Pemetrexed] (partner 0.2 µM)
In short: as §1

[2] = compound: CCn1c(-c2nonc2N)nc2cnc(Oc3cccc(NC(=O)c4ccc(OCCN5CCOCC5)cc4)c3)cc21 + CCNC(=O)c1noc(-c2cc(C(C)C)c(O)cc2O)c1-c1ccc(CN2CCOCC2)cc1 [Luminespib] (partner 0.01 µM)
In short: as §1

## UMC-11
Mirin + OSI-027; first compound 0.25 µM
  relative viability: 0.477
Mirin + OSI-027; first compound 0.7906 µM
  relative viability: 0.483
Mirin + OSI-027; first compound 2.5 µM
  relative viability: 0.461
Mirin + OSI-027; first compound 7.906 µM
  relative viability: 0.396
Mirin + OSI-027; first compound 25 µM
  relative viability: 0.293
[1]; first compound 0.04 µM
  relative viability: 1.04
[1]; first compound 0.1265 µM
  relative viability: 0.903
[1]; first compound 0.4 µM
  relative viability: 0.68
[1]; first compound 1.265 µM
  relative viability: 0.245
[1]; first compound 4 µM
  relative viability: 0.186
Mirin + Pemetrexed; first compound 0.25 µM
  relative viability: 0.787
Mirin + Pemetrexed; first compound 0.7906 µM
  relative viability: 0.74
Mirin + Pemetrexed; first compound 2.5 µM
  relative viability: 0.92
Mirin + Pemetrexed; first compound 7.906 µM
  relative viability: 0.691
Mirin + Pemetrexed; first compound 25 µM
  relative viability: 0.568
[2]; first compound 0.04 µM
  relative viability: 1.03
[2]; first compound 0.1265 µM
  relative viability: 0.915
[2]; first compound 0.4 µM
  relative viability: 0.83
[2]; first compound 1.265 µM
  relative viability: 0.291
[2]; first compound 4 µM
  relative viability: 0.222
